Experimental data: ChEMBL document CHEMBL1123973, “Renin inhibitors containing hydrophilic groups. Tetrapeptides with enhanced aqueous solubility and nanomolar potency” (J Med Chem, 1988)
Blank lines part the entries; values can stand above or below the molecule they belong to.

Legend:
Canis familiaris [1] = assay: Change in mean blood pressure (MBP) in dog 3 after oral administration after a period of 90 min; assay type: functional, Canis lupus familiaris
Canis familiaris [2] = assay: Change in mean blood pressure (MBP) in dog 2 after oral administration after a period of 30 min; assay type: functional, Canis lupus familiaris
Canis familiaris [3] = assay: Change in mean blood pressure (MBP) in dog 2 after oral administration after a period of 180 min; assay type: functional, Canis lupus familiaris
Canis familiaris [4] = assay: Change in mean blood pressure (MBP) in dog 1 after oral administration after a period of 45 min; assay type: functional, Canis lupus familiaris
Canis familiaris [5] = assay: Change in mean blood pressure (MBP) in dog 2 after oral administration after a period of 90 min; assay type: functional, Canis lupus familiaris
Canis familiaris [6] = assay: Change in mean blood pressure (MBP) in dog 1 after oral administration after a period of 240 min; assay type: functional, Canis lupus familiaris
Canis familiaris [7] = assay: Change in mean blood pressure (MBP) in dog 3 after oral administration after a period of 240 min; assay type: functional, Canis lupus familiaris
Canis familiaris [8] = assay: Change in mean blood pressure (MBP) in dog 1 after oral administration after a period of 30 min; assay type: functional, Canis lupus familiaris
Canis familiaris [9] = assay: Change in mean blood pressure (MBP) in dog 2 after oral administration after a period of 300 min; assay type: functional, Canis lupus familiaris
Canis familiaris [10] = assay: Change in mean blood pressure (MBP) in dog 1 after oral administration after a period of 75 min; assay type: functional, Canis lupus familiaris
Canis familiaris [11] = assay: Change in mean blood pressure (MBP) in dog 3 after oral administration after a period of 180 min; assay type: functional, Canis lupus familiaris
Canis familiaris [12] = assay: Change in mean blood pressure (MBP) in dog 1 after oral administration after a period of 150 min; assay type: functional, Canis lupus familiaris
Canis familiaris [13] = assay: Change in mean blood pressure (MBP) in dog 3 after oral administration after a period of 120 min; assay type: functional, Canis lupus familiaris
Canis familiaris [14] = assay: Change in mean blood pressure (MBP) in dog 3 after oral administration after a period of 30 min; assay type: functional, Canis lupus familiaris
Canis familiaris [15] = assay: Change in mean blood pressure (MBP) in dog 1 after oral administration after a period of 10 min; assay type: functional, Canis lupus familiaris
Canis familiaris [16] = assay: Change in mean blood pressure (MBP) in dog 3 after oral administration after a period of 300 min; assay type: functional, Canis lupus familiaris
Canis familiaris [17] = assay: Change in mean blood pressure (MBP) in dog 1 after oral administration after a period of 90 min; assay type: functional, Canis lupus familiaris
Canis familiaris [18] = assay: Change in mean blood pressure (MBP) in dog 3 after oral administration after a period of 75 min; assay type: functional, Canis lupus familiaris
Canis familiaris [19] = assay: Change in mean blood pressure (MBP) in dog 1 after oral administration after a period of 60 min; assay type: functional, Canis lupus familiaris
Canis familiaris [20] = assay: Change in mean blood pressure (MBP) in dog 3 after oral administration after a period of 60 min; assay type: functional, Canis lupus familiaris
Canis familiaris [21] = assay: Change in mean blood pressure (MBP) in dog 3 after oral administration after a period of 45 min; assay type: functional, Canis lupus familiaris
Canis familiaris [22] = assay: Change in mean blood pressure (MBP) in dog 2 after oral administration after a period of 150 min; assay type: functional, Canis lupus familiaris
Canis familiaris [23] = assay: Change in mean blood pressure (MBP) in dog 1 after oral administration after a period of 120 min; assay type: functional, Canis lupus familiaris
Canis familiaris [24] = assay: Change in mean blood pressure (MBP) in dog 3 after oral administration after a period of 15 min; assay type: functional, Canis lupus familiaris
Canis familiaris [25] = assay: Change in mean blood pressure (MBP) in dog 3 after oral administration after a period of 150 min; assay type: functional, Canis lupus familiaris
Canis familiaris [26] = assay: Change in mean blood pressure (MBP) in dog 1 after oral administration after a period of 180 min; assay type: functional, Canis lupus familiaris
Canis familiaris [27] = assay: Change in mean blood pressure (MBP) in dog 2 after oral administration after a period of 45 min; assay type: functional, Canis lupus familiaris
Canis familiaris [28] = assay: Change in mean blood pressure (MBP) in dog 2 after oral administration after a period of 75 min; assay type: functional, Canis lupus familiaris
Canis familiaris [29] = assay: Change in mean blood pressure (MBP) in dog 2 after oral administration after a period of 240 min; assay type: functional, Canis lupus familiaris
Canis familiaris [30] = assay: Change in mean blood pressure (MBP) in dog 2 after oral administration after a period of 15 min; assay type: functional, Canis lupus familiaris
Canis familiaris [31] = assay: Change in mean blood pressure (MBP) in dog 1 after oral administration after a period of 300 min; assay type: functional, Canis lupus familiaris
Canis familiaris [32] = assay: Change in mean blood pressure (MBP) in dog 2 after oral administration after a period of 60 min; assay type: functional, Canis lupus familiaris
Canis familiaris [33] = assay: Change in mean blood pressure (MBP) in dog 1 after oral administration after a period of 15 min; assay type: functional, Canis lupus familiaris
Canis familiaris [34] = assay: Change in mean blood pressure (MBP) in dog 2 after oral administration after a period of 120 min; assay type: functional, Canis lupus familiaris
[35] = buffer, pH 7.4
Description: Solubility (phosphate buffer, pH 7.4)

physchem [36] = details: phosphate buffer, pH 7.4, S
Description: Solubility (phosphate buffer, pH 7.4)

Sus scrofa = species: Sus scrofa; assay: Concentration required for 50% inhibition of porcine kidney renin at 10e-7 nM concentration; assay type: functional
[37] = Partition coefficient (logD) (octanol/citric acid-phosphate buffer)
physchem [38] = details: S

SMILES: CC(C)C[C@H](NC(=O)CC(O)C(CC1CCCCC1)NC(=O)[C@H](Cc1c[nH]cn1)NC(=O)[C@H](Cc1ccccc1)NC(=O)OC(C)(C)C)C(=O)NCc1cccc(CN)c1 (stereo not given in full)
MBP (Canis familiaris [1]): -2 mmHg | MBP (Canis familiaris [2]): -3 mmHg | MBP (Canis familiaris [3]): -2 mmHg | MBP (Canis familiaris [4]): -6 mmHg | MBP (Canis familiaris [5]): -5 mmHg | MBP (Canis familiaris [6]): 1 mmHg | MBP (Canis familiaris [7]): -3 mmHg | MBP (Canis familiaris [8]): -2 mmHg | MBP (Canis familiaris [9]): -1 mmHg | MBP (Canis familiaris [10]): -7 mmHg | MBP (Canis familiaris [11]): -5 mmHg | MBP (Canis familiaris [12]): -1 mmHg | MBP (Canis familiaris [13]): 1 mmHg | MBP (Canis familiaris [14]): -6 mmHg | MBP (Canis familiaris [15]): -12 mmHg | MBP (Canis familiaris [16]): -3 mmHg | MBP (Canis familiaris [17]): 1 mmHg | MBP (Canis familiaris [18]): -9 mmHg | MBP (Canis familiaris [19]): -4 mmHg | MBP (Canis familiaris [20]): -5 mmHg | MBP (Canis familiaris [21]): -7 mmHg | MBP (Canis familiaris [22]): -3 mmHg | MBP (Canis familiaris [23]): -2 mmHg | MBP (Canis familiaris [24]): 1 mmHg | MBP (Canis familiaris [25]): -2 mmHg | MBP (Canis familiaris [26]): -13 mmHg | MBP (Canis familiaris [27]): -4 mmHg | MBP (Canis familiaris [28]): 1 mmHg | MBP (Canis familiaris [29]): -1 mmHg | MBP (Canis familiaris [30]): -6 mmHg | MBP (Canis familiaris [31]): -10 mmHg | MBP (Canis familiaris [32]): 0 mmHg | MBP (Canis familiaris [33]): -18 mmHg | MBP (Canis familiaris [34]): -4 mmHg

S [35]: 6100 µM | S: 2300 µM
SMILES: CC(C)CC(NC(=O)[C@H](Cc1c[nH]cn1)NC(=O)[C@H](Cc1ccccc1)NC(=O)OC(C)(C)C)C(O)CC(=O)N[C@@H](CC(C)C)C(=O)NCCC(N)C(=O)O (stereo in doubt; 16)

solubility (physchem [36]): > 11 mM | logD [37]: 0.633 | solubility (physchem [38]): > 11 mM
SMILES: CC(C)CC(NC(=O)[C@H](Cc1c[nH]cn1)NC(=O)[C@H](Cc1ccccc1)NC(=O)OC(C)(C)C)C(O)CC(=O)N[C@@H](CC(C)C)C(=O)NCCS(=O)(=O)O (stereo not given in full)
Inhibition (Sus scrofa): 0%
